According to patent EP2842965A1, “Neuromedin U analogs comprising serum albumin binding amino acid residue” (Gubra ApS, priority 2013, dated 2015):
Starred links: 1 amine or outer side, 2 acyl side, 3 side chain; linkers in the order of their positions; H or OH if unused. Residues, ends and D or L forms follow the SMILES beside them. Groups on a side chain read outwards from the residue. *: point of attachment. γGlu = O=C(O)[C@H](CCC(=O)[*:2])N[*:1]; Palmitoyl = CCCCCCCCCCCCCCCC(=O)*

Assay: In vivo acute/dose response study of food intake in the HM2 system after SC dosing
Conditions: 6 hours post dosing, male NMRI mice
Method: Animals: A total of seventy two (72) male NMRI mice 6-7 weeks old (approx. 25 g BW) at the time of arrival were obtained from Taconic (Denmark) and transferred to the Gubra test stables. Upon arrival the animals will be transferred into the HM2 cages and housed in groups of four. The animal room environment were controlled (targeted ranges: temperature 22 ± 2°C; relative humidity 50 ± 10%; light/dark cycle: 12 hours light, 12 hours dark, lights on from 6 AM to 6 PM. […] have ad libitum access to Altromin (Brogaarden, Denmark) and tap water.
Run-in period: Mice arrived at day -7. A minimum of 5-7 days of habituation to the system was allowed before study start. During these days, animals were handled daily to accustom them to the experimental paradigm.
Runs in the HM2 system: In total five runs were performed in the HM2 system. There were at least 4 days of washout between each run.
Acute effect of lipidated analogues: Mice were re-randomized and the acute effects of the lipidated compounds were tested in an acute setting. Mice were dosed in doses equimolar to the concentration of NMU found to be semi-efficacious.
Dose response study: Different doses of the analogues were tested in order to establish a dose response relationship. Mice were re-randomized and four different doses of the five lipidated analogues were tested over two different runs in the HM2 system and compared with NMU at […] and liraglutide at 0.05 µmol/kg.
Randomization and experimentation: Animals were randomized according to body weight the day of dosing and stratified into the following experimental groups based on mean cage weight (n=4-8): • Pilot (PD) study run 1 (dose finding of NMU): • 1: Vehicle (0.9% NaCl, pH ∼ 4.0 and 0.1% BSA) (n=4) • 2: Native human Neuromedin U (NMU-25), sc, 1 mg/kg (n=4) • 3: Native human Neuromedin U (NMU-25), sc, 3 mg/kg (n=4) • 4: Native human Neuromedin U (NMU-25), sc, 10 mg/kg (n=4) • 5: PYY3-36, sc 1 mg/kg (n=4) • Pilot (PD) study run 2 (dose finding of NMU): • 1: Vehicle (0.9% NaCl, pH ∼ 4.0 and 0.1% BSA) (n=4) • 2: Native human Neuromedin U (NMU-25), sc, 1 mg/kg (n=4) • 3: Native human Neuromedin U (NMU-25), sc, 3 mg/kg (n=4) • Acute effects of lipidated analogues: • 1: Vehicle (PBS + 0.1% BSA+ 5.4% DMSO) SC • 2: Liraglutide 0.2 mg/kg, sc, 0.05 pmol/kg (n=8) • 3: Human neuromedin U 25 (NMU), sc, 1 µmol/kg (n=8) • 5: SEQ ID NO 17, sc, 1 pmol/kg (n=8) • 6: SEQ ID NO 14, sc, 1 pmol/kg (n=8) • 7: SEQ ID NO 11, sc, 1 pmol/kg (n=8) • 8: SEQ ID NO 8, sc, 1 pmol/kg (n=8) • 9: SEQ ID NO 5, sc, 1 pmol/kg (n=8) • Dose response study run 1 • 1: Vehicle (0.9% NaCl, pH ∼ 4.1 and 0.1% BSA) (n=6) • 2: Liraglutide 0.2 mg/kg, sc, 0.05 pmol/kg (n=4) • 3: Human neuromedin U 25 (NMU), sc, 1 µmol/kg (n=5) • 8: SEQ ID NO 17, sc, 1 pmol/kg (n=4) • 9: SEQ ID NO 17, sc, 0.3 pmol/kg (n=5) • 10: SEQ ID NO 17, sc, 0.1 µmol/kg (n=5) • 11: SEQ ID NO 17, sc, 0.03 pmol/kg (n=5) • 12: SEQ ID NO 14, sc, 1 pmol/kg (n=4) • 13: SEQ ID NO 14, sc, 0.3 pmol/kg (n=5) • 14: SEQ ID NO 14, sc, 0.1 pmol/kg (n=5) • 15: SEQ ID NO 14, sc, 0.03 pmol/kg (n=5) • Dose response study run 2 • 1: Vehicle (0.9%NaCl, pH ∼ 4.0 and 0.1% BSA) (n=5) • 2: Liraglutide 0.2 mg/kg, sc, 0.05 pmol/kg (n=4) • 3: Human neuromedin U 25 (NMU), sc, 1 µmol/kg (n=4) • 4: SEQ ID NO 11, sc, 1 pmol/kg (n=4) • 5: SEQ ID NO 11, sc, 0.3 pmol/kg (n=5) • 6: SEQ ID NO 11, sc, 0.1 pmol/kg (n=5) • 7: SEQ ID NO 11, sc, 0.03 pmol/kg (n=5) • 8: SEQ ID NO 8, sc, 1 pmol/kg (n=4) • 9: SEQ ID NO 8, sc, 0.3 pmol/kg (n=5) • 10: SEQ ID NO 8, sc, 0.1 pmol/kg (n=5) • 11: SEQ ID NO 8, sc, 0.03 pmol/kg (n=5) • 12: SEQ ID NO 5, sc, 1 pmol/kg (n=4) • 13: SEQ ID NO 5, sc, 0.3 pmol/kg (n=5) • 14: SEQ ID NO 5, sc, 0.1 µmol/kg (n=5) • 15: SEQ ID NO 5, sc, 0.03 pmol/kg (n=5) Dosing: All dosing took place just prior to lights out in the afternoon. Doses was administered subcutaneously (sc) (dose volume 10 ml/kg), alternating the injection site from the left to the right side of the lower back and inguinal region, respectively. […]

| Compound | Percent food intake reduction 6 hours post SC dosing (0.03 µmol/kg) [%] | Percent food intake reduction 6 hours post SC dosing (0.1 µmol/kg) [%] | Percent food intake reduction 6 hours post SC dosing (0.3 µmol/kg) [%] | Percent food intake reduction 6 hours post SC dosing (1.0 µmol/kg) [%] |
| --- | --- | --- | --- | --- |
| CCCCCCCCCCCCCCCC(=O)N[C@@H](CCC(=O)NCCCC[C@H](NC(=O)[C@H](CCC(N)=O)NC(=O)[C@H](CO)NC(=O)[C@H](C)NC(=O)[C@H](Cc1ccccc1)NC(=O)[C@@H]1CCCN1C(=O)[C@H](CO)NC(=O)[C@H](CCC(N)=O)NC(=O)[C@H](Cc1ccccc1)NC(=O)[C@H](CCC(=O)O)NC(=O)[C@H](CCC(=O)O)NC(=O)[C@H](CC(=O)O)NC(=O)[C@@H](NC(=O)[C@H](CCCNC(=N)N)NC(=O)[C@@H](N)Cc1ccccc1)C(C)C)C(=O)N[C@@H](CCCNC(=N)N)C(=O)NCC(=O)N[C@@H](Cc1ccc(O)cc1)C(=O)N[C@@H](Cc1ccccc1)C(=O)N[C@@H](CC(C)C)C(=O)N[C@@H](Cc1ccccc1)C(=O)N[C@@H](CCCNC(=N)N)C(=O)N1CCC[C@H]1C(=O)N[C@@H](CCCNC(=N)N)C(=O)N[C@@H](CC(N)=O)C(N)=O)C(=O)O [SEQ ID NO 5] (H-FRVDEEFQSPFASQK([γGlu-Palmitoyl])RGYFLFRPRN-NH2) | 41 | 41 | 61 | 76 |
| CCCCCCCCCCCCCCCC(=O)N[C@@H](CCC(=O)NCCCC[C@H](NC(=O)[C@H](C)NC(=O)[C@H](Cc1ccccc1)NC(=O)[C@@H]1CCCN1C(=O)[C@H](CO)NC(=O)[C@H](CCC(N)=O)NC(=O)[C@H](Cc1ccccc1)NC(=O)[C@H](CCC(=O)O)NC(=O)[C@H](CCC(=O)O)NC(=O)[C@H](CC(=O)O)NC(=O)[C@@H](NC(=O)[C@H](CCCNC(=N)N)NC(=O)[C@@H](N)Cc1ccccc1)C(C)C)C(=O)N[C@@H](CCC(N)=O)C(=O)N[C@@H](CO)C(=O)N[C@@H](CCCNC(=N)N)C(=O)NCC(=O)N[C@@H](Cc1ccc(O)cc1)C(=O)N[C@@H](Cc1ccccc1)C(=O)N[C@@H](CC(C)C)C(=O)N[C@@H](Cc1ccccc1)C(=O)N[C@@H](CCCNC(=N)N)C(=O)N1CCC[C@H]1C(=O)N[C@@H](CCCNC(=N)N)C(=O)N[C@@H](CC(N)=O)C(N)=O)C(=O)O [SEQ ID NO 8] (H-FRVDEEFQSPFAK([γGlu-Palmitoyl])QSRGYFLFRPRN-NH2) | 25 | 55 | 46 | 90 |
| CCCCCCCCCCCCCCCC(=O)N[C@@H](CCC(=O)NCCCC[C@H](NC(=O)[C@H](CCC(=O)O)NC(=O)[C@H](CC(=O)O)NC(=O)[C@@H](NC(=O)[C@H](CCCNC(=N)N)NC(=O)[C@@H](N)Cc1ccccc1)C(C)C)C(=O)N[C@@H](Cc1ccccc1)C(=O)N[C@@H](CCC(N)=O)C(=O)N[C@@H](CO)C(=O)N1CCC[C@H]1C(=O)N[C@@H](Cc1ccccc1)C(=O)N[C@@H](C)C(=O)N[C@@H](CO)C(=O)N[C@@H](CCC(N)=O)C(=O)N[C@@H](CO)C(=O)N[C@@H](CCCNC(=N)N)C(=O)NCC(=O)N[C@@H](Cc1ccc(O)cc1)C(=O)N[C@@H](Cc1ccccc1)C(=O)N[C@@H](CC(C)C)C(=O)N[C@@H](Cc1ccccc1)C(=O)N[C@@H](CCCNC(=N)N)C(=O)N1CCC[C@H]1C(=O)N[C@@H](CCCNC(=N)N)C(=O)N[C@@H](CC(N)=O)C(N)=O)C(=O)O [SEQ ID NO 14] (H-FRVDEK([γGlu-Palmitoyl])FQSPFASQSRGYFLFRPRN-NH2) | 5 | 31 | 79 | 89 |
| CCCCCCCCCCCCCCCC(=O)N[C@@H](CCC(=O)NCCCC[C@H](NC(=O)[C@@H](NC(=O)[C@H](CCCNC(=N)N)NC(=O)[C@@H](N)Cc1ccccc1)C(C)C)C(=O)N[C@@H](CCC(=O)O)C(=O)N[C@@H](CCC(=O)O)C(=O)N[C@@H](Cc1ccccc1)C(=O)N[C@@H](CCC(N)=O)C(=O)N[C@@H](CO)C(=O)N1CCC[C@H]1C(=O)N[C@@H](Cc1ccccc1)C(=O)N[C@@H](C)C(=O)N[C@@H](CO)C(=O)N[C@@H](CCC(N)=O)C(=O)N[C@@H](CO)C(=O)N[C@@H](CCCNC(=N)N)C(=O)NCC(=O)N[C@@H](Cc1ccc(O)cc1)C(=O)N[C@@H](Cc1ccccc1)C(=O)N[C@@H](CC(C)C)C(=O)N[C@@H](Cc1ccccc1)C(=O)N[C@@H](CCCNC(=N)N)C(=O)N1CCC[C@H]1C(=O)N[C@@H](CCCNC(=N)N)C(=O)N[C@@H](CC(N)=O)C(N)=O)C(=O)O [SEQ ID NO 17] (H-FRVK([γGlu-Palmitoyl])EEFQSPFASQSRGYFLFRPRN-NH2) | 20 | 43 | 64 | 78 |
